Test results taken from US5089623A, “Certain imidate insecticides” (Imperial Chemical Industries Plc, priority 1990, dated 1992).

Tests used:
Type in all cases: in vivo
[1] = system: Cabbage Looper [Trichoplusia ni (Hubner)]; test: Cabbage looper test (CL); settings: second-instar larvae, 3-5 days, percent in solution
[2] = system: Tobacco Budworm [Heliothis virescens (Fabricius)] eggs; test: Tobacco budworm egg test (TBW-E); settings: percent in solution
[3] = system: Maize weevil [Sitophilus Zeamais (Motschulsky)]; test: Maize weevil test (MW); settings: adult weevils, treated corn seeds, 48 hours, percent in solution
In short: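 Adult weevils (10) were placed with four corn seeds that had been dipped 2-3 s in compound dissolved in 50:50 acetone:water, then dried, and held at about 25° C. Mortality was scored at 48 h. LC50 was taken from dosage-mortality curves and expressed as percent compound in solution, from a 0.01% top concentration.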

[4] = system: Housefly [Musca domestica]; test: Housefly insecticidal test (HF); settings: per 25 female houseflies, 48 hours

Compound | LC50 CL [1] [%] | LC50 TBW E [2] [%] | LC50 MW [3] [%] | LC50 HF [4] [µg]
Fc1ccc(COC(=Nc2ccc(C(F)(F)F)cc2)C2CC2)cc1Oc1ccc(Cl)cc1 [Compound 444] | 0.00015 | 0.023 | > 0.01 | > 100
CC(C)C(=Nc1ccc(C(F)(F)F)cc1[N+](=O)[O-])OCc1ccc(F)c(Oc2ccccc2)c1 [Compound 445] | 0.00045 | > 0.1 | > 0.01 | < 100
CCOc1ccc(N=C(OCc2cccc(Oc3ccc(F)cc3)c2)C(C)C)cc1Br [Compound 446] | 0.0008 | < 0.1 | > 0.01 | > 100
CC(C)C(=Nc1ccc(F)c(I)c1)OCc1cccc(Oc2ccc(F)cc2)c1 [Compound 449] | 0.0001 | 0.025 | 0.0075 | 13
CC(C)C(=Nc1cccc(C(F)(F)F)c1)OC(C)c1cccc(Oc2ccccc2)c1 (centres unmarked) [Compound 459] | 0.008 | 0.1 | > 0.01 | > 100
CC(C)C(=Nc1ccc(F)c(Cl)c1)OCc1cccc(Oc2c(F)c(F)c(F)c(F)c2F)c1 [Compound 460] | 0.02 | > 0.1 | > 0.01 | > 100
CC(C)C(=Nc1ccc(I)c(Cl)c1)OCc1cccc(Oc2ccc(Cl)cc2)n1 [Compound 471] | 0.00018 | 0.018 | > 0.01 | < 100
CC(C)C(=Nc1cccc(C(F)(F)F)c1)OCc1cccc(Oc2ccc(Cl)cc2)n1 [Compound 477] | 0.0003 | > 0.1 | 0.0076 | 20
CC(C)C(=Nc1ccc(Br)cc1)OCc1coc(Cc2ccccc2)c1 [Compound 478] | 0.0037 | > 0.1 | > 0.01 | 15
CC(C)C(=Nc1cccc(C(F)(F)F)c1)OCc1coc(Cc2ccccc2)c1 [Compound 482] | 0.01 | > 0.1 | > 0.01 | 36
CC(C)C(=Nc1ccc2c(c1)OCO2)OCc1coc(Cc2ccccc2)c1 [Compound 483] | 0.001 | 0.05 | > 0.01 | 6
CC(C)C(=Nc1ccc(F)cc1F)OCc1coc(Cc2ccccc2)c1 [Compound 486] | > 0.1 | > 0.1 | > 0.01 | 15
COCc1c(F)c(F)c(COC(=Nc2cccc(C(F)(F)F)c2)C(C)C)c(F)c1F [Compound 503] | 0.001 | 0.08 | > 0.01 | 21
CC(C)C(=Nc1ccc(C(F)(F)F)cc1)OCc1cccc(Oc2ccccc2)n1 [Compound 504] | 0.00025 | 0.05 | 0.01 | < 100
COCc1c(F)c(F)c(COC(=Nc2ccc(F)c(Cl)c2)C(C)C)c(F)c1F [Compound 505] | 0.0024 | 0.09 | > 0.01 | 14
CC(C)C(=Nc1cccc(C(F)(F)F)c1)OCc1cc(Oc2ccccc2)ccn1 [Compound 506] | 0.005 | > 0.1 | > 0.01 | 40
CC(C)C(=Nc1cccc(C(F)(F)F)c1)OCc1ccnc(Oc2ccccc2)c1 [Compound 507] | 0.002 | > 0.1 | > 0.01 | 93
CC(C)C(=Nc1cccc(C(F)(F)F)c1)OCc1ccnc(Oc2ccc(F)cc2)c1 [Compound 508] | 0.013 | > 0.1 | > 0.01 | > 100
CC(C)C(=Nc1cccc(C(F)(F)F)c1)OCc1cc(Oc2ccc(Cl)cc2)ccn1 [Compound 509] | 0.0075 | > 0.1 | > 0.01 | 79
CC(C)C(=Nc1ccc(F)c(Cl)c1)OCc1ccnc(Oc2ccccc2)c1 [Compound 510] | 0.017 | > 0.1 | > 0.01 | 54
CC(C)C(=Nc1ccc(F)c(Cl)c1)OCc1ccnc(Oc2ccc(F)cc2)c1 [Compound 511] | 0.0012 | > 0.1 | > 0.01 | 89
CC(C)C(=Nc1ccc(OC(F)(F)F)cc1)OCc1cccc(Oc2ccccc2)n1 [Compound 550] | 0.00034 | > 0.1 | > 0.01 | < 100
CC(C)C(=Nc1ccc(Br)c(F)c1)OCc1cccc(Oc2ccc(Cl)cc2)n1 [Compound 551] | 0.00075 | 0.035 | > 0.01 | < 100
CCc1ccc(N=C(OCc2cccc(Oc3ccc(Cl)cc3)n2)C(C)C)cc1 [Compound 552] | 0.0016 | > 0.1 | > 0.01 | > 100
CC(C)C(=Nc1ccc(Cl)cc1)OCc1cccc(Oc2ccccc2)n1 [Compound 553] | < 0.1 | 0.1 | > 0.01 | < 100
CC(C)C(=Nc1ccc(Cl)cc1)OCc1cccc(Oc2ccc(Cl)cc2)n1 [Compound 554] | 0.00075 | 0.04 | > 0.01 | > 100
